# Assay results reported in US10426162B2, “Interaction between antimicrobial quaternary compounds and anionic surfactants” (Ecolab USA Inc., priority 2016, dated 2019).
# How the values were obtained:
# [1] = Dynamic surface tension (SITA science line t60 bubble pressure); conditions: for dynamic surface tension: 100 ppm Bardac […] + sulfate based anionic surfactant at mole:mole ratio, FIGS. 4A-4C
# Description: The SITA science line t60 measures the dynamic surface tension of liquids up to the semi-static range. Air bubbles are generated from a capillary with known radius. The bubble pressure is measured as a function of bubble life time, which can be correlated to the surface tension according to the Young-Laplace equation.
# The SITA science line t60 was calibrated with DI water. Clean water samples after calibration should have a surface tension of 72.0 ±1.0 mN/m (depending on the quality and temperature). Following calibration, the SITA was programmed to take readings at the desired time intervals (i.e., 0.3, 1.6, 3.0, 9.1 seconds). In order to determine the effects on the surface activity of a 9:1 mass ratio of quaternary ammonium compound with an anionic surfactant the following compositions were prepared.
# 10-15 mL were transferred into 20 mL vials and immersed in a heated oil bath to 72° C. (160° F.)±2° C. The samples were equilibrated for 10-15 minutes. The samples were individually removed from the oil bath and tested in the SITA. After each sample was tested the SITA's cleaning procedure was run, then the surface tension of DI water was checked to ensure the SITA was adequately clean. If the DI water measurements were not within 72.0±1.0 mN/m, then the cleaning procedure was run again.
# The SITA science line t60 was calibrated with DI water. Clean water samples after calibration should have a surface tension of 72.0±1.0 mN/m (depending on the quality and temperature). Following calibration, the SITA was programmed to take readings at the desired time intervals (i.e., 0.3, 1.6, 3.0, 9.1 seconds). In order to determine the effects on the dynamic surface tension of Bardac LF80 and varying concentrations of Acusol 445 the following five solutions were analyzed at pH 7.0; 100 ppm Bardac LF80; 10 ppm Acusol 445; 100 ppm Bardac LF80+10 ppm Acusol 445; 100 ppm Bardac LF80+30 ppm Acusol 445; and 100 ppm Bardac LF80+75 ppm Acusol 445.
# Escherichia coli = assay: Antimicrobial suspension test of quat-anionic surfactant compositions (Examples 6-7); type: cell-based; conditions: for antimicrobial efficacy against E. coli (log reduction of bacteria): 300 ppm Bardac […] + anionic surfactant, mole:mole ratio, pH 8, FIG. 7; for log reduction of bacteria for E. coli: 300 ppm active Bardac […] + anionic surfactant, 7.5/1 mass ratio, FIG. 6A
# Staphylococcus = assay: Antimicrobial suspension test of quat-anionic surfactant compositions (Examples 6, 8); type: cell-based, Staphylococcus aureus; conditions: for antimicrobial efficacy against Staphylococcus: FIG. 6A; for kill properties on Staphylococcus: 300, 150 and 75 ppm active Bardac […] + anionic surfactant, 7.5:1 mass ratio, pH 8, FIG. 8
# bacteria = assay: Antimicrobial efficacy at pH 8.0, 7.5 to 1 mass ratio (FIG. 6B); type: cell-based; conditions: 7.5/1 mass ratio; for antimicrobial efficacy: 150 ppm Bardac […] + anionic surfactant; for log reduction of bacteria: 300 ppm Bardac […] + anionic surfactant
# Description: Further examination of the antimicrobial efficacy of a quaternary ammonium compound in association with an anionic surfactant at pH 8.0 was performed as described above.
# E. coli = assay: Third sink sanitizer (Example 12); type: cell-based, Escherichia coli; conditions: 500 ppm water hardness, neutral pH versus pH 4.5
# Description: The antimicrobial efficacy of quaternary ammonium compounds and anionic surfactants for use as a third sink sanitizer were evaluated as shown in Table 10.
# [2] = 300 ppm active Bardac […] + anionic surfactant, 7.5/1 mass ratio
# [3] = Bardac […] + anionic sulfate surfactant at mole:mole ratio, FIG. 2
# [4] = 100 ppm Bardac […] + anionic carboxylate surfactant at mole:mole ratio, FIG. 3A
# [5] = 300 ppm Bardac […] + anionic surfactant, mole:mole ratio
Compound,antimicrobial efficacy against E. coli (log reduction of bacteria) (Escherichia coli),antimicrobial efficacy (bacteria),log reduction of bacteria (bacteria),"dynamic surface activity (surface tension versus bubble life time) [1, 3]","dynamic surface activity (surface tension versus bubble life time) [1, 4]",kill properties on Staphylococcus (Staphylococcus),further results
"CC(C(=O)[O-])N(CC(=O)[O-])CC(=O)[O-].[Na+].[Na+].[Na+] (centres unmarked) [Trilon M, methyl glycine diacetic acid (MGDA)]",,,,,,,"dynamic surface activity, effect of pH ([1]; 100 ppm Bardac LF80 + 100 ppm Trilon M at pH 3.0, 9.0, 11.0, FIG. 21): independent of pH"
sodium lauryl ether sulfate [SLES],reduce the antimicrobial activity of the quaternary ammonium compound,good antimicrobial efficacy,highest log reduction of bacteria,"overall increase in surface activity compared to Bardac 205M alone, but displayed slower dynamics",,,"log reduction of bacteria for E. coli (Escherichia coli): highest log reduction of bacteria for E. coli; antimicrobial efficacy against Staphylococcus (Staphylococcus; [2]): good antimicrobial efficacy against Staphylococcus; dynamic surface activity (surface tension versus bubble life time) ([1]; 100 ppm Bardac […] + surfactant at 9:1 mass ratio, 160° F., FIG. 1): do not display the synergistic boost in surface activity"
"CC(O)(P(=O)(O)O)P(=O)(O)O [HEDP, 1-hydroxy ethylidene-1,1-diphosphonic acid]",,,,,,,"dynamic surface activity ([1]; 100 ppm Bardac LF80 + 10-75 ppm HEDP, pH 7.0, FIG. 18): increase in dynamic surface activity of Bardac LF80 in combination with HEDP"
CCCCCCCCCCCC(=O)O [lauric acid],,,,,"capable of increasing the surface activity, to variable extents, compared to Bardac 205M alone",,
CCCCCCCCCC(=O)O [decanoic acid],reduce the antimicrobial activity of the quaternary ammonium compound,good antimicrobial efficacy,highest log reduction of bacteria,,,excellent kill properties on Staphylococcus,"dynamic surface tension, effect of pH ([1]; 100 ppm Bardac […] + 56 ppm decanoic acid mole:mole, pH 3.6-10.2, FIG. 5B): independent of pH; dynamic surface activity (surface tension versus bubble life time) ([1]; 100 ppm Bardac […] alone, 100 ppm Decanoate alone, or 100 ppm Bardac […] + 10-70 ppm Decanoic acid, FIG. 3B): limited surface activity; effect on the antimicrobial efficacy of the quat (E. coli): “synergizes” the quat; effect on the antimicrobial efficacy of the quat (E. coli; listed as decanoate): “deactivates” quat"
"CCCCCCCCCCCCOS(=O)(=O)[O-].[Na+] [SLS, sodium lauryl sulfate]",reduce the antimicrobial activity of the quaternary ammonium compound,,highest log reduction of bacteria,"overall increase in surface activity compared to Bardac 205M alone, but displayed slower dynamics",,,"log reduction of bacteria for E. coli (Escherichia coli): highest log reduction of bacteria for E. coli; antimicrobial efficacy against Staphylococcus (Staphylococcus; [2]): good antimicrobial efficacy against Staphylococcus; dynamic surface tension [1]: reduced dynamic surface tension, as compared to either the quaternary ammonium compound or the anionic surfactant alone"
"CCCCCCCCS(=O)(=O)[O-].[Na+] [NAS-FAL, sodium n-octanesulfonate]",reduce the antimicrobial activity of the quaternary ammonium compound,,highest log reduction of bacteria,rapid increase in surface activity,,,antimicrobial efficacy against Staphylococcus (Staphylococcus; [5]): good antimicrobial efficacy against Staphylococcus; dynamic surface tension [1]: synergistic trend in regards to reduced surface tension
"CCCCC(CC)COS(=O)(=O)[O-].[Na+] (centres unmarked) [EH-S, Sodium 2-ethyl hexyl sulfate]",reduce the antimicrobial activity of the quaternary ammonium compound,,highest log reduction of bacteria,rapid increase in surface activity,,excellent kill properties on Staphylococcus,log reduction of bacteria for E. coli (Escherichia coli): highest log reduction of bacteria for E. coli; antimicrobial efficacy against Staphylococcus (Staphylococcus; [5]): good antimicrobial efficacy against Staphylococcus; dynamic surface tension [1]: synergistic reduction of surface tension
CCCCCCCC(=O)O [octanoic acid],highest log reduction of bacteria,good antimicrobial efficacy,highest log reduction of bacteria,,"capable of increasing the surface activity, to variable extents, compared to Bardac 205M alone",excellent kill properties on Staphylococcus,
CCCCCCCC/C=C\CCCCCCCC(=O)O [Oleic acid],,,,,"capable of increasing the surface activity, to variable extents, compared to Bardac 205M alone",,
CCCCC(CC)C(=O)O (centres unmarked) [ethylhexoic acid],highest log reduction of bacteria,good antimicrobial efficacy,highest log reduction of bacteria,,"capable of increasing the surface activity, to variable extents, compared to Bardac 205M alone",excellent kill properties on Staphylococcus,
